Experiments:
[1] = target: binding between megalin and hemoglobin (Rattus norvegicus, UniProt P98158); settings: QCM, 1 mg cilastatin injected into 200 μL buffer in advance, rat hemoglobin (FIG. 2-1)
Description: (§1) Binding specificity between megalin and each ligand (hemoglobin, α1M, Hx), and the possible binding inhibition by cilastatin were verified using the quartz crystal microbalance (QCM) method by reference to the method described in PTL 2.
(§2) For the ligands to be verified, hemoglobin (LifeSpan Biosciences Inc., Rat Hemoglobin Native Protein, LS-G11201) and Hx (Sino Biological Inc., Rat Hemopexin/HPX protein (His Tag 81025-R08H)) were used. […]
(§3) After each of the ligand- or BSA-immobilized quartz crystal sensor was mounted in the measurement instrument AFFINIX® Q8 (Initium Inc.) and the frequency was confirmed to be stable, 8 μL of a 0.1 mg/mL solution of megalin purified from Sprague-Dawley (SD) rat kidneys according to the method of Orlando et al. was injected and frequency was measured with time.
(§4) More specifically, the megalin solution was reacted to each of the ligand-immobilized quartz crystal sensors placed in a chamber with 200 μL of buffer, and frequency was measured.
(§5) Additionally, 1 mg of cilastatin was injected into buffer in advance, each of the ligand-immobilized quartz crystal sensors was mounted in the measurement instrument, and after the frequency was confirmed to be stable, the megalin solution was injected and frequency was measured with time, whereby the antagonistic activity of cilastatin against the binding of each ligand to megalin was analyzed. […]

[2] = target: binding between megalin and Hx (Rattus norvegicus, UniProt P98158); settings: QCM, 1 mg cilastatin injected into 200 μL buffer in advance, rat Hx (FIG. 2-1)
Description: as §1, §2, §3, §4, §5

[3] = system: hemolysis model mice; settings: cilastatin 400 mg/kg i.p. at 0, 3 and 6 h after phenylhydrazine, kidneys at 24 h, immunostaining (FIG. 7)
Procedure: (§6) In line with Test Example 1, 1 mg/10 g of phenylhydrazine was given to C57BL/6 (male, aged 10-12 weeks), thereby constructing hemolysis model mice.
(§7) To the hemolysis models, a) 400 mg/kg (diluted in 100 μL, of normal saline) of cilastatin (Sigma-Aldrich Inc.), or b) 100 μL, of normal saline was intraperitoneally administered at the time of phenylhydrazine dosing, 3 hours after the dosing, and 6 hours after the dosing.
In the present test example, thinly sliced fixed samples obtained from the remaining right kidney of the same animal were immunostained (500-fold diluted) using an anti-α1M antibody (Gene Tex: GTX101068).

[4] = system: hemolysis model mice; settings: cilastatin 400 mg/kg i.p. at 0, 3 and 6 h after phenylhydrazine, vs normal saline control group (FIG. 1)
Procedure: Phenylhydrazine (97% phenylhydrazine, Sigma-Aldrich Inc.) was dissolved in PBS in a concentration of 5 mg/ml to prepare a PBS solution, and the solution was intraperitoneally given to C57BL/6 mice (male, aged 10-12 weeks) so that the dose of phenylhydrazine was 1 mg/10 g, thereby constructing homolysis models.
as §7, with “μL” for “μL,”, “dosing. For each a) and b), 6 mice were used.” for “dosing.”
Then, for each individual in a) cilastatin-treated group and b) normal saline-treated group (control group), urine was pooled using a metabolic cage for 24 hours after phenylhydrazine dosing, and the obtained urine samples were collected.
The urine and serum were stored at −80° C. until analysis and measured for urinary KIM-1 and blood urea nitrogen. The measurements were conducted by Oriental Yeast Co., Ltd.

[5] = system: mice (C57BL/6); settings: cilastatin sodium 400 mg/kg i.p.
Procedure: Cilastatin was administered to mice and changes in concentrations of each ligand in urine were observed.
Five mice (male, aged 12 weeks C57BL/6) were intraperitoneally administered with 400 mg/kg (diluted in 100 μL, of normal saline, cilastatin-treated group) of cilastatin sodium (Sigma-Aldrich Japan K.K., C5743), and then put in a metabolic cage for 3 hours to collect urine, and the urines of 5 mice were combined. Additionally, 100 μL, of normal saline was administered to another group of 5 mice (control group), and the same experiment as above was conducted.
Proteins were isolated from the obtained urine samples by electrophoresis (SDS-polyacrylamide gel), reductively alkylated (using dithiothreitol and iodoacetamide), digested with trypsin, and the obtained peptides were extracted to obtain a solid.
To the obtained solid, 15 μL, of 0.3% formic acid (FA) was added, shaken for 5 minutes, sonicated for 1 minute, and shaken again for 5 minutes. The resultant mixture was spun down, applied to a membrane filter having a pore diameter of 0.45 μm (ULtra free-MC, HV, 0.45 μm, Millipore), centrifuged at 10,000 rpm for 5 minutes, and the sample passed through the filter was subjected to LCMS analysis.
The analysis method described in Ohara et al., 2018, PLoS One, vol. 13, 1, e0204160 was referred to. The analysis method is shown below.
AnaLyst® TF1.6 (AB SCIEX) was used as an LCMS/MS data acquisition and analysis software, and the obtained raw data were converted to a peak list file (mgf file format), whereby MS/MS Ion Search (MIS search) was conducted using Matrix Science Mascot daemon, Mascot server 2.2.1. The sequence data base used was Uniprot, Swiss-Prot. Significance threshold was set to 0.05 (false discovery rate of less than 5%), and the proteins having 2 or more peptides exceeding the identification standard were listed as identified proteins.
Raw data were acquired 2 times per sample at LCMS to cover the issue of analysis reproducibility at LCMS, and the peak list files obtained from the 2 runs were combined and analyzed using Mascot (Ohara et al., 2018, PLoS One, vol. 13, 1, e0204160).
To the proteins identified in common in 2 groups when compared, the spectral count method was used, which is a label-free comparative, semiquantitative analysis method utilizing a principle that a large number of peptide fragments will be identified in those expressed at high levels, resulting in the increase in the number of MS/MS. In other words, the proteins identified in both of the cilastatin-treated group and control group were calculated for an SpC/L ratio (spectral abundance factor: SAF) of the cilastatin-treated group/control group, and the proteins having an SpC/L ratio of 2.0 or more were listed as the proteins abundant in urine of the cilastatin-treated group.

[6] = target: binding between α1M and megalin (Rattus norvegicus, UniProt P98158); settings: QCM, 1 mg/200 μL cilastatin injected into buffer in advance, rat α1M (FIG. 2-2)
Description: as §1

[7] = system: hemolysis model mice; settings: cilastatin 400 mg/kg i.p. at 0, 3 and 6 h after phenylhydrazine, kidneys at 24 h, immunostaining (FIG. 5)
Procedure: Twenty-four hours after phenylhydrazine dosing, a portion containing a renal pedicle was sliced to 3 mm thickness from the right kidney and fixed with 4% paraformaldehyde phosphate buffer.
as §6, §7

[8] = mice, 3 h urine pooled from 5 mice, LCMS

Sequence of binding between megalin and hemoglobin (P98158 26-4660): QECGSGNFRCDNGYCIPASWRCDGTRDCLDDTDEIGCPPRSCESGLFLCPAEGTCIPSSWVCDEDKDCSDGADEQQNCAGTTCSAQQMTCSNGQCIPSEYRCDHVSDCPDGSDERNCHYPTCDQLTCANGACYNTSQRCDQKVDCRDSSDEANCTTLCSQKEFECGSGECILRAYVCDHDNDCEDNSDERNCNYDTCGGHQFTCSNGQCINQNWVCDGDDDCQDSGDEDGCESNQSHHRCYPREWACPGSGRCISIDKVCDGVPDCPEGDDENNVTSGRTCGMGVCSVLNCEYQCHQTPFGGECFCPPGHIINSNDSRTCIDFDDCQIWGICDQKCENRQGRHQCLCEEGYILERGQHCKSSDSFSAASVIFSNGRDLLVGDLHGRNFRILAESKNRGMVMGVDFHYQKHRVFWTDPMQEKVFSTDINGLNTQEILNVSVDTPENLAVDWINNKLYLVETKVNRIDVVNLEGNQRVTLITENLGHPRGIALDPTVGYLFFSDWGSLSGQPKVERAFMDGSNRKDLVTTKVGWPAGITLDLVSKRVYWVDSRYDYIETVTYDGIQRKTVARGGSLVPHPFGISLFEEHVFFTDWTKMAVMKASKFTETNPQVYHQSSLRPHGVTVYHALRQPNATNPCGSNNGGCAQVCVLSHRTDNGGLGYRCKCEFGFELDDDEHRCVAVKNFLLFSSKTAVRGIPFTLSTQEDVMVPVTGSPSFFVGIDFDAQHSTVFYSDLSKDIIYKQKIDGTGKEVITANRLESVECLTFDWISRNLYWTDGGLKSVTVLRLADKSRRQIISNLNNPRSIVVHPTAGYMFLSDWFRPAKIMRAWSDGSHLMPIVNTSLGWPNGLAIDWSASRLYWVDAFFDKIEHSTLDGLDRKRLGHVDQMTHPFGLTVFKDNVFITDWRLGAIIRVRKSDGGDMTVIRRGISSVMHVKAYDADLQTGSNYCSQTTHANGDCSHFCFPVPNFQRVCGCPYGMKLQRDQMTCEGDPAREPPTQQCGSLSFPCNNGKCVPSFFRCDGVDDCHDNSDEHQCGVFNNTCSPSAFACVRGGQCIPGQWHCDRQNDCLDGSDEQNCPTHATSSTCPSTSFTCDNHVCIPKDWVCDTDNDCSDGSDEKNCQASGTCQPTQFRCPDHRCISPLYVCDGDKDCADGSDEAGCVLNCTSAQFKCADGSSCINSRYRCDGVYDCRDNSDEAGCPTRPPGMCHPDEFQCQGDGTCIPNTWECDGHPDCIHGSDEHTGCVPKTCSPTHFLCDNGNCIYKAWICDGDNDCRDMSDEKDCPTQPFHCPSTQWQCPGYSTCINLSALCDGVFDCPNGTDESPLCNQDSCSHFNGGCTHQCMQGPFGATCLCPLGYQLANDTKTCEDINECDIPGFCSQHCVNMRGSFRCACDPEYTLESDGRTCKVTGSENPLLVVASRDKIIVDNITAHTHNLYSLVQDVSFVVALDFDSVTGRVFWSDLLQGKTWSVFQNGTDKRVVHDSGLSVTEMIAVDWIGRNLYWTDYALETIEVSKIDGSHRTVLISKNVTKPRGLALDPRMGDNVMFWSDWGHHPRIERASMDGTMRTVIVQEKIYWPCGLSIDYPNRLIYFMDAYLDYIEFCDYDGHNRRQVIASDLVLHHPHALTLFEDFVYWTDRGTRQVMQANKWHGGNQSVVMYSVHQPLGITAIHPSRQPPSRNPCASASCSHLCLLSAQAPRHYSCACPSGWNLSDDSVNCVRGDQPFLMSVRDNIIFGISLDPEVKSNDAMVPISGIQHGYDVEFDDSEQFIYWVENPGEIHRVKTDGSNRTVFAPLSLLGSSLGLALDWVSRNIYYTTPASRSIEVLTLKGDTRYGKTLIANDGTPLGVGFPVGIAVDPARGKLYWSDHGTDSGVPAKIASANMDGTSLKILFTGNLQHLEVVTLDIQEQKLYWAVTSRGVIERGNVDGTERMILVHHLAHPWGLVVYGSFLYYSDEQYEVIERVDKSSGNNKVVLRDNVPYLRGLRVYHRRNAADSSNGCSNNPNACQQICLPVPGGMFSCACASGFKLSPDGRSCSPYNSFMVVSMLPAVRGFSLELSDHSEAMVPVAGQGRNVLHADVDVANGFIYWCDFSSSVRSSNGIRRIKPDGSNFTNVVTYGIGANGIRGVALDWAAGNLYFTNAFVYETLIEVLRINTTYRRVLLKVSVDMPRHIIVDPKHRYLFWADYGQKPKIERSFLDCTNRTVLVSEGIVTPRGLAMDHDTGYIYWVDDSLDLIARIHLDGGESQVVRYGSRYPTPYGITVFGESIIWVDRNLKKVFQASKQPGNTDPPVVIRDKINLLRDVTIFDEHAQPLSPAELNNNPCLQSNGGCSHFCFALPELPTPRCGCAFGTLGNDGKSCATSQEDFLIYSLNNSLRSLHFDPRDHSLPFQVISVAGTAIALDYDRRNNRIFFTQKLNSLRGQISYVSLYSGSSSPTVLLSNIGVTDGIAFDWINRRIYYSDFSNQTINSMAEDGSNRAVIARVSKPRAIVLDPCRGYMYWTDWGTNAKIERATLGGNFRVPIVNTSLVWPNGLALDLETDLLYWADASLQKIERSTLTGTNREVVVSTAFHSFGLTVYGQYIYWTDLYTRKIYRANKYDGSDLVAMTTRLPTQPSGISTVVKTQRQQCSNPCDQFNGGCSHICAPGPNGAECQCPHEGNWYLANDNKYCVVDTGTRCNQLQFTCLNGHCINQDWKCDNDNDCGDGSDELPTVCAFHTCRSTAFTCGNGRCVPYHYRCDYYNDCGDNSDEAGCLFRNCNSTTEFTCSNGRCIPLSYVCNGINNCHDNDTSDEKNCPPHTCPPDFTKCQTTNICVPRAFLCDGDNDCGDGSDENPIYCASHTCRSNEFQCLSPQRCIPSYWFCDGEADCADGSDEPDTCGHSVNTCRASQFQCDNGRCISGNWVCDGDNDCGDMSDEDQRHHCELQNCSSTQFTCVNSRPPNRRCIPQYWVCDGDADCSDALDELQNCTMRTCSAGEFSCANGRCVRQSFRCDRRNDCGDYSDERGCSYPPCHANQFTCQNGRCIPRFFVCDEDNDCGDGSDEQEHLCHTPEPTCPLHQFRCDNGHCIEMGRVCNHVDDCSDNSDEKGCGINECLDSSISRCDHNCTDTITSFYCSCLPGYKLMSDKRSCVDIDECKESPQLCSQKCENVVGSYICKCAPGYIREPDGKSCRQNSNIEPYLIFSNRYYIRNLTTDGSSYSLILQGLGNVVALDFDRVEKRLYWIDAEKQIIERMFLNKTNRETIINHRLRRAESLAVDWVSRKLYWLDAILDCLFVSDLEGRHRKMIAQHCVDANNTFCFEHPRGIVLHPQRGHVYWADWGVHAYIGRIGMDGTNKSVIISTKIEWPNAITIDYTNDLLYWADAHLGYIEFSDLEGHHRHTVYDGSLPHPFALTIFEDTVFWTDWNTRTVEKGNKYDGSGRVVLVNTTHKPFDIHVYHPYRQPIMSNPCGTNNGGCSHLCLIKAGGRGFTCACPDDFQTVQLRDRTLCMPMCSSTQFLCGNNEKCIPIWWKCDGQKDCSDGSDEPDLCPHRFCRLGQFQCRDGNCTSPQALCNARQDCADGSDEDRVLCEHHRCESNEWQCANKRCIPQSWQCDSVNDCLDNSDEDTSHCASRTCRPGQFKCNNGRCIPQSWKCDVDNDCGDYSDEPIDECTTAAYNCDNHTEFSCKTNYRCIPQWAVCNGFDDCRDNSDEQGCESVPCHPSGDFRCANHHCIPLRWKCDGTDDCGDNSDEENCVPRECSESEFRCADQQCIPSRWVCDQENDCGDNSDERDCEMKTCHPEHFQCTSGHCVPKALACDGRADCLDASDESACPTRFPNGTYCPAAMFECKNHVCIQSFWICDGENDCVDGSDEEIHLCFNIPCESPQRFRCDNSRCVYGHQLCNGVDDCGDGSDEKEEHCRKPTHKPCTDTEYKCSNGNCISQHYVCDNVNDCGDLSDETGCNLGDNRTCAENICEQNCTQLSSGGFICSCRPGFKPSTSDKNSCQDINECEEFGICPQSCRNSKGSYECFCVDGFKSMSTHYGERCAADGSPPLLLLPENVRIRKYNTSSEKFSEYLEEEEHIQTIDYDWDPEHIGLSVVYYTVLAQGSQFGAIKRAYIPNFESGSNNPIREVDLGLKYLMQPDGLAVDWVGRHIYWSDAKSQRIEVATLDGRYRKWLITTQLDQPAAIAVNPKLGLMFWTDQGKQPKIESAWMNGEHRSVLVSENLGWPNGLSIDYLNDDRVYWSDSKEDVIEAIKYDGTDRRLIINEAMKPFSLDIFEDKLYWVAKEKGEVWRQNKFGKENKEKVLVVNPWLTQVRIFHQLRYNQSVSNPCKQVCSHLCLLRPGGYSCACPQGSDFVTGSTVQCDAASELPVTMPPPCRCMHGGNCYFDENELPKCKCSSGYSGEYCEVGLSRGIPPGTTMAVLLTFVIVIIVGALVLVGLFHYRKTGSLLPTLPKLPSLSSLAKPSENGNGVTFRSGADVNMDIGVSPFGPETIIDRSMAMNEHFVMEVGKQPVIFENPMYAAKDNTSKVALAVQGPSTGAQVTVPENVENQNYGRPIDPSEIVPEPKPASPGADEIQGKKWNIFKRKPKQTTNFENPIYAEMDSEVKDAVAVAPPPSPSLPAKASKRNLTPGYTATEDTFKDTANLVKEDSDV
Sequence of binding between megalin and Hx (P98158 26-4660): as above
Sequence of binding between α1M and megalin (P98158 26-4660): as above

binding of megalin to hemoglobin-immobilized quartz crystal sensor (drop of quartz crystal signals) [1]: inhibited | binding of megalin to Hx-immobilized quartz crystal sensor (drop of quartz crystal signals) [2]: inhibited | binding of α1M to megalin-immobilized quartz crystal sensor (drop of quartz crystal signals) [6]: inhibited
SMILES: CC1(C)C[C@@H]1C(=O)N/C(=C\CCCCSC[C@H](N)C(=O)O)C(=O)O [cilastatin, (Z)-7-[[(R)-2-Amino-2-carboxyethyl]thio]-2-[[[(S)-2,2-dimethylcyclopropyl]carbonyl]amino]-2-heptenoic acid]
amounts of α1M taken up into kidney tissues [3]: reduced | urinary KIM-1 ([4]; 24 h pooled urine): lower in the cilastatin (CS)-treated group than the control group | blood urea nitrogen ([4]; serum at 24 h): lower in the cilastatin (CS)-treated group than the control group | uptake of α1M and Hx into kidney tissues ([5]; concluded from higher urinary concentrations in the cilastatin-treated group): inhibits | SpC/L ratio (cilastatin-treated group/control group), urinary Albumin [5, 8]: 1.10 | SpC/L ratio (cilastatin-treated group/control group), urinary Clusterin [5, 8]: 0.73 | SpC/L ratio (cilastatin-treated group/control group), urinary Hx [5, 8]: 2.33 | SpC/L ratio (cilastatin-treated group/control group), urinary Transcobalamin-2 [5, 8]: 2.33 | SpC/L ratio (cilastatin-treated group/control group), urinary Transthyretin [5, 8]: 1.00 | SpC/L ratio (cilastatin-treated group/control group), urinary Vitamin D-binding protein [5, 8]: 0.80 | SpC/L ratio (cilastatin-treated group/control group), urinary α1M [5, 8]: 3.67 | amounts of hemoglobin taken up into kidney tissues [7]: reduced

Source: patent publication US12239621B2, “Prevention of kidney injury induced by hemolytic reaction” (Niigata University, priority 2021, dated 2025)
